Laboratory results as given in patent US4016259A, “Contraceptive polypeptides” (Research Corporation, priority 1975, dated 1977).
Peptide text beside a SMILES is read from it.

Experiments:
Hamster = assay: Female Anti-Fertility test (Table I), implants counted at autopsy; format: in vivo; conditions: subc., saline, days (-4)-(-1), autopsy day 10
Experimental: In one study carried out with hamsters Thr-Pro-Arg-Lys as the diacetate was administered subcutaneously in isotonic solution at dosage levels of 2, […], once daily starting on the day of postovulatory discharge (-4) prior to mating. Treatment was continued until the fourth day after ovulation. The animals were mated and then sacrificed on the tenth day. The uterus was opened, and the number of implants counted.
TEST Female Anti-Fertility
ROUTE OF ADMINISTRATION Subc.
Once daily for four days, starting on the day
of postovulatory discharge, prior to mating.

hamsters = assay: Control of pregnancy in hamsters, compound in phosphate buffer pH 7.1 subcutaneously or orally; format: in vivo, hamster

`C[C@@H](O)[C@H](N)C(=O)N1CCC[C@H]1C(=O)N[C@@H](CCCNC(=N)N)C(=O)N[C@@H](CCCCN)C(=O)O` [Thr-Pro-Arg-Lys, threonyl-prolyl-arginyl-lysine] (H-TPRK-OH) was tested, and the “Average No. of Implants” value (Hamster; daily dose 2.0 μg/100 mg) was 0.5, the “Total No. of Normal Fetuses” value (Hamster; daily dose 2.0 μg/100 mg) was 5 and the “Total No. of Resorbing Fetuses” value (Hamster; daily dose 2.0 μg/100 mg) was 0. For the same compound, the “No. of Animals with Implantations” value (Hamster; daily dose 2.0 μg/100 mg, 10/10 sperm +) was 1, the “Average No. of Implants” value (Hamster; daily dose 10.0 μg/100 mg) was 4.6 and the “Total No. of Normal Fetuses” value (Hamster; daily dose 10.0 μg/100 mg) was 46. For the same compound, the “Total No. of Resorbing Fetuses” value (Hamster; daily dose 10.0 μg/100 mg) was 3, the “No. of Animals with Implantations” value (Hamster; daily dose 10.0 μg/100 mg, 10/10 sperm +) was 4 and the “Average No. of Implants” value (Hamster; daily dose 100.0 μg/100 mg) was 5.9. The “Total No. of Normal Fetuses” value (Hamster; daily dose 100.0 μg/100 mg) was 53, the “Total No. of Resorbing Fetuses” value (Hamster; daily dose 100.0 μg/100 mg) was 1 and the “No. of Animals with Implantations” value (Hamster; daily dose 100.0 μg/100 mg, 9/10 sperm +) was 4. The number of pregnancies (hamsters; administered orally at 35 to 50 μg/100 gm/day) was “reduced to zero”, the “number of implantations per animal” value (hamsters; subcutaneous, phosphate buffer pH 7.1, at 0.7 mcg/gm/day) was “less than one” and the “effective dose (number of implantations per animal reduced to less than one)” value (hamsters; subcutaneous, phosphate buffer pH 7.1, calculated as free base) was 0.7 mcg/gm/day.
